{"source": "patent US20070117770A1", "about": "“Human ribosomal DNA (rDNA) and ribosomal RNA (rRNA) nucleic acids and uses thereof” (Cylene Pharmaceuticals, Inc., priority 2005, published 2007)", "assay_in_all_cases": "Protein kinase inhibition assay", "key": {"[1]": {"target": "CDK1/cyclinB(h) (Homo sapiens, UniProt P06493)", "sequence (P06493 whole entry)": "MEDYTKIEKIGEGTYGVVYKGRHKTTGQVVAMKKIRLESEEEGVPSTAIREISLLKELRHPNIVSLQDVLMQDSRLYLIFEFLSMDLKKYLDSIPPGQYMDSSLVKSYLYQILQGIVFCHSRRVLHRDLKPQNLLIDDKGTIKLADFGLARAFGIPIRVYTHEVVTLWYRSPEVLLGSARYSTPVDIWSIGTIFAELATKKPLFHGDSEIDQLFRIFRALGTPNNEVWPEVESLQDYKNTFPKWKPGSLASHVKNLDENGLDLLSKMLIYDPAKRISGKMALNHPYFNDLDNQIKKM", "sequence (P14635 whole entry partner)": "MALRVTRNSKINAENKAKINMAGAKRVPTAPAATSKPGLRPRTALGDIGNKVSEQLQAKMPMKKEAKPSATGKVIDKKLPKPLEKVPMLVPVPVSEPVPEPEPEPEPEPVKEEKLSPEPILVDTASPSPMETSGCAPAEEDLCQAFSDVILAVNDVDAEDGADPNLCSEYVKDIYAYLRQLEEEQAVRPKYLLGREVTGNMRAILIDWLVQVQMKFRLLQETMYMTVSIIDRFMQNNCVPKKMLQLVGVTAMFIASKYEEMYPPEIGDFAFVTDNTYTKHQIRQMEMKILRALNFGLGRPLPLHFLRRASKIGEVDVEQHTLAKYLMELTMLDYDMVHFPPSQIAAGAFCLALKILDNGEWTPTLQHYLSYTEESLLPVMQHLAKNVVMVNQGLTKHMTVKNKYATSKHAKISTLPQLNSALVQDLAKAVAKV", "format": "biochemical", "settings": "read-out: percent residual activity of CDK1/cyclinB(h)", "description": "(§1) Certain compounds were tested for activity in protein kinase inhibition assays. All substrates were dissolved and diluted to working stocks in de-ionized water, apart from histone H1 (10× working stock in 20 mM MOPS pH 7.0), PDKtide (10× working stock in 50 mM Tris pH 7.0) ATF2 (which is typically stored at a 20× working stock in 50 mM Tris pH 7.5, 150 mM NaCl, 0.1 mM EGTA, 0.03% Brij-35, 50% glycerol, 1 mM benzamidine, 0.2 mM PMSF and 0.1% R-mercaptoethanol), KKLNRTLSFAEPG (SEQ ID NO:203) and RRRLSFAEPG (SEQ ID NO:204) (50 mM HEPES pH 7.4) and GGEEEEYFELVKKKK (SEQ ID NO:205) (20 mM MOPS pH 7.0). All kinases were pre-diluted to a 10× working concentration prior to addition into the assay. The composition of the dilution buffer for each kinase is detailed below.\n(§2) In a final reaction volume of 25 μl, CDK1/cyclinB (h) (5-10 mU) is incubated with 8 mM MOPS pH 7.0, 0.2 mM EDTA, 0.1 mg/ml histone H1, 10 mM MgAcetate and [gamma-33P-ATP] (specific activity approx. 500 cpm/pmol, concentration as required). The reaction is initiated by the addition of the MgATP mix. After incubation for 40 minutes at room temperature, the reaction is stopped by the addition of 5 μl of a 3% phosphoric acid solution. 10 μl of the reaction is then spotted onto a P30 filtermat and washed three times for 5 minutes in 75 mM phosphoric acid and once in methanol prior to drying and scintillation counting."}, "[2]": {"target": "CDK5/p25(h) (Homo sapiens, UniProt Q00535)", "sequence (Q00535 whole entry)": "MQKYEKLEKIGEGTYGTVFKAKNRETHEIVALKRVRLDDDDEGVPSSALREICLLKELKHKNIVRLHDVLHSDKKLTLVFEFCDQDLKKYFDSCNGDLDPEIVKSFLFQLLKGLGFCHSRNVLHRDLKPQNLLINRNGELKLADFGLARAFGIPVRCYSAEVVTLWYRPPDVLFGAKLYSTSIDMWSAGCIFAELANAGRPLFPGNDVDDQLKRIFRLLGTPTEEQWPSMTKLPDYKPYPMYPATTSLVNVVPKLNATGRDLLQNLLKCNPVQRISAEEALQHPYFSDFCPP", "sequence (Q15078 99-307 partner limits assumed)": "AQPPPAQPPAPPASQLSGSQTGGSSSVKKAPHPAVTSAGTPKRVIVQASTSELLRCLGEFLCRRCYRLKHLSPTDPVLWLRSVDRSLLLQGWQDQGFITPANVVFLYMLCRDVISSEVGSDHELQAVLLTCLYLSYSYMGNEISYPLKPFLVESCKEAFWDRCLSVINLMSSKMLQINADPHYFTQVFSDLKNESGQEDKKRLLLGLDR", "format": "biochemical", "settings": "read-out: percent residual activity of CDK5/p25(h)", "description": "as §1\nas §2, with “CDK5/p25” for “CDK1/cyclinB”, “[y-33P-ATP]” for “[gamma-33P-ATP]”"}, "[3]": {"target": "Flt3(D835Y)(h) (Homo sapiens, UniProt P36888, D835Y)", "format": "biochemical", "settings": "read-out: percent residual activity of Flt3(D835Y)(h)", "description": "as §1\nas §2, with “Flt3 (D835Y)” for “CDK1/cyclinB”, “50 μM EAIYAAPFAKKK (SEQ ID NO:206),” for “0.1 mg/ml histone H1,”"}, "[4]": {"target": "Hck(h) (Homo sapiens, UniProt P08631)", "sequence (P08631 whole entry)": "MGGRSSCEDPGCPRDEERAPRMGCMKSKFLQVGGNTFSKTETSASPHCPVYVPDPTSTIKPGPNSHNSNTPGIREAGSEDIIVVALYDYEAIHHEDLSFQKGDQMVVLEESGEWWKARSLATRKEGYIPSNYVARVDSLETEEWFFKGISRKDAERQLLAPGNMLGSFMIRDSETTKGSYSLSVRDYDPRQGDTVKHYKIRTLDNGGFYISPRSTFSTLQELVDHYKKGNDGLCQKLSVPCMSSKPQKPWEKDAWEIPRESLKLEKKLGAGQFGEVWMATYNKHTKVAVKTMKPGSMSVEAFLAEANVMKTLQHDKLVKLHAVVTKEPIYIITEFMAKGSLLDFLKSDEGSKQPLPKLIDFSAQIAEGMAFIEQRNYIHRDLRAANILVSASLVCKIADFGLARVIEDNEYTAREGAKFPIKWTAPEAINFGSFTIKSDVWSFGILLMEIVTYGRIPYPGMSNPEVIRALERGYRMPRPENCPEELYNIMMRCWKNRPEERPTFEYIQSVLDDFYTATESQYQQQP", "format": "biochemical", "settings": "read-out: percent residual activity of Hck(h)", "description": "as §1\n(§3) In a final reaction volume of 25 μl, Hck (h) (5-10 mU) is incubated with 8 mM MOPS pH 7.0, 0.2 mM EDTA, 250 μM KVEKIGEGTYGVVYK (Cdc2 peptide) (SEQ ID NO:211), 10 mM MgAcetate and [gamma-33P-ATP] (specific activity approx. 500 cpm/pmol, concentration as required). The reaction is initiated by the addition of the MgATP mix. After incubation for 40 minutes at room temperature, the reaction is stopped by the addition of 5 μl of a 3% phosphoric acid solution. […]"}, "[5]": {"tested_on": "p70S6K(h)", "format": "biochemical, human", "settings": "2.5 μM", "description": "as §1\nas §2, with “p70S6K” for “CDK1/cyclinB”, “100 μM KKRNRTLTV (SEQ ID NO:212),” for “0.1 mg/ml histone H1,”"}, "[6]": {"target": "ZAP-70(h) (Homo sapiens, UniProt P43403)", "sequence (P43403 whole entry)": "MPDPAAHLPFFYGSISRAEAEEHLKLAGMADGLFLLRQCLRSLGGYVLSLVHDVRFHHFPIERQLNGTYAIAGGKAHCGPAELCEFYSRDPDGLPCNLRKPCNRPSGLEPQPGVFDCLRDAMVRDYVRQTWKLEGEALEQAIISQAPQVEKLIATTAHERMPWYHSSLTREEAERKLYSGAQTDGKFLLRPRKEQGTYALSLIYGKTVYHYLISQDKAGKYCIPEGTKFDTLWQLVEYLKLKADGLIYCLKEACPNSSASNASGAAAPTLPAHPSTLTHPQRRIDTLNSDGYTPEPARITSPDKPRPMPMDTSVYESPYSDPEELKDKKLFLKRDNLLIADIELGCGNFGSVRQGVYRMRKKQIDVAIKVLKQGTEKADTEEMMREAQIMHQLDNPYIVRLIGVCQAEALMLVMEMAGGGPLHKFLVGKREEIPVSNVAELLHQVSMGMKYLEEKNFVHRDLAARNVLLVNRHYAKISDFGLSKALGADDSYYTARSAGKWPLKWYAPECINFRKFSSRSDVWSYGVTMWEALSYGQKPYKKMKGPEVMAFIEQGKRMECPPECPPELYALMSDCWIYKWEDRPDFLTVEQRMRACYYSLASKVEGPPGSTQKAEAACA", "format": "biochemical", "settings": "read-out: percent residual activity of ZAP-70(h)", "description": "as §1\nas §3, with “ZAP-70” for “Hck”, “50” for “8”, “Tris” for “MOPS”, “7.5, 0.1” for “7.0, 0.2”, “EGTA, 0.1 mM Na3VO4, 0.1% R-mercaptoethanol, 0.1 mg/ml poly(Glu, Tyr) 4:1, 10 mM MnCl2,” for “EDTA, 250 μM KVEKIGEGTYGVVYK (Cdc2 peptide) (SEQ ID NO:211),”"}}}
{"molecule": "CN1CCCC1CCNC(=O)c1cn2c3c(c(N4CCC(c5cnccn5)C4)c(F)cc3c1=O)Oc1cc3ccccc3cc1-2", "note": "(stereo not shown) [Compound A-1]", "values": [{"measurement": "remaining activity at 2.5 µM", "setting": "[1]", "result": 84, "unit": "%"}, {"measurement": "remaining activity at 2.5 µM", "setting": "[2]", "result": 77, "unit": "%"}, {"measurement": "remaining activity at 2.5 µM", "setting": "[3]", "result": 36, "unit": "%"}, {"measurement": "remaining activity at 2.5 µM", "setting": "[4]", "result": 84, "unit": "%"}, {"measurement": "inhibition of p70S6K", "setting": "[5]", "result": "greater than 80%"}, {"measurement": "percent residual activity of p70S6K(h)", "setting": "[5]", "result": 18, "unit": "%"}, {"measurement": "remaining activity at 2.5 µM", "setting": "[6]", "result": 130, "unit": "%"}]}
{"molecule": "CC(=O)N1CCN(c2ccc3c(=O)c(C(=O)NCCN4CCCC4)c4n(C)c5ccccc5n4c3n2)CC1", "note": "[Compound B-1]", "values": [{"measurement": "remaining activity at 2.5 µM", "setting": "[1]", "result": 93, "unit": "%"}, {"measurement": "remaining activity at 2.5 µM", "setting": "[2]", "result": 99, "unit": "%"}, {"measurement": "remaining activity at 2.5 µM", "setting": "[3]", "result": 78, "unit": "%"}, {"measurement": "remaining activity at 2.5 µM", "setting": "[4]", "result": 89, "unit": "%"}, {"measurement": "percent residual activity of p70S6K(h)", "setting": "[5]", "result": 97, "unit": "%"}, {"measurement": "remaining activity at 2.5 µM", "setting": "[6]", "result": 105, "unit": "%"}]}
